Assay results as given in ChEMBL document CHEMBL1201862, “PubChem BioAssay data set” (2004).
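Cells were grown in 96-well plates and exposed to each compound for 48 hours at five concentrations; endpoints were interpolated linearly between bracketing concentrations, or set to the highest concentration if not reached. At the GI50, growth is halved.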 Calls of active or inactive are those of the source. Cut-off read from the data, not from the text of the source: active = GI50 up to about 1.1 µM and inactive = higher.

Key:
Assay in all cases: growth of human tumour cells (NCI), 48 h
M19-MEL = system: M19-MEL
HOP-18 = system: HOP-18
BT-549 = system: BT-549
XF498 = system: XF498
KM-20L2 = system: KM-20L2
RXF 631 = system: RXF 631
SNB-78 = system: SNB-78
DLD-1 = system: DLD-1
DMS-273 = system: DMS-273

| Structure (SMILES) | GI50 (M19-MEL) | GI50 (HOP-18) | GI50 (BT-549) | GI50 (XF498) | GI50 (KM-20L2) | GI50 (RXF 631) | GI50 (SNB-78) | GI50 (DLD-1) | GI50 (DMS-273) |
| --- | --- | --- | --- | --- | --- | --- | --- | --- | --- |
| C/C(=N\N)C(CN(C)C)C(c1ccccc1)c1c(O)c2ccccc2oc1=O (stereo not given) | 95.7 µM (inactive) | > 100 µM (inactive) | > 100 µM (inactive) | 36.4 µM (inactive) | > 100 µM (inactive) | > 100 µM (inactive) | > 100 µM (inactive) | > 100 µM (inactive) | > 100 µM (inactive) |
| COc1ccc2c(c1)CC1c3c(ccc(OC)c3O)CC2N1C (stereo not given) | 23 µM (inactive) | 71.1 µM (inactive) |  | 21.3 µM (inactive) | 28.4 µM (inactive) | 22.6 µM (inactive) | 24.3 µM (inactive) | 68.5 µM (inactive) | 22.4 µM (inactive) |
| CCOC(=O)NC(=O)c1c[nH]c(=O)[nH]c1=O | > 100 µM (inactive) | > 100 µM (inactive) |  | > 100 µM (inactive) | > 100 µM (inactive) | > 100 µM (inactive) | > 100 µM (inactive) | > 100 µM (inactive) | > 100 µM (inactive) |
| CCOc1ccc2nc(NC(=O)c3c/c(=N\NC(=O)C[N+](C)(C)C)c4ccc(O)cc4o3)sc2c1 | 0.294 µM (active) | 2.06 µM (inactive) |  | 2.83 µM (inactive) | 3.21 µM (inactive) | 6.03 µM (inactive) | 5 µM (inactive) | 2.52 µM (inactive) | 3.34 µM (inactive) |
| CC(C)N(C(=O)c1cccc(C(=O)N(C(C)C)C(C)C)c1)C(C)C | > 100 µM (inactive) | > 100 µM (inactive) |  | > 100 µM (inactive) | > 100 µM (inactive) | > 100 µM (inactive) | > 100 µM (inactive) | > 100 µM (inactive) | > 100 µM (inactive) |
| CC[C@H](C)[C@H]1NC(=O)C(C(C)=O)=C1O | 71.3 µM (inactive) | 58.1 µM (inactive) |  | > 100 µM (inactive) | > 100 µM (inactive) | 92.5 µM (inactive) | > 100 µM (inactive) | 70.3 µM (inactive) | > 100 µM (inactive) |
| CC(C)Cc1ccc(C(C)/C=C2\CCC(CN3CCCC3)C2=O)cc1 (stereo not given) | 3.84 µM (inactive) | 19.2 µM (inactive) |  | 8.73 µM (inactive) | 14.4 µM (inactive) | 20.2 µM (inactive) | 19.4 µM (inactive) | 2.55 µM (inactive) | 4.5 µM (inactive) |
| Cc1cccc(NC(=O)c2c(N)[n+]([O-])c3ccccc3[n+]2[O-])c1 | 8.97 µM (inactive) | 18.2 µM (inactive) |  | 11.4 µM (inactive) | 16.6 µM (inactive) | 1.77 µM (inactive) | 11.9 µM (inactive) | 11.7 µM (inactive) | 9.51 µM (inactive) |
| O=C(CC1(O)C(=O)Nc2c(Cl)cc(Cl)cc21)c1ccc2ccccc2c1 (stereo not given) | 4.49 µM (inactive) | 13.3 µM (inactive) |  | 11.6 µM (inactive) | 3.56 µM (inactive) | 7.08 µM (inactive) | 16.8 µM (inactive) | 11.6 µM (inactive) | 3.72 µM (inactive) |
| CCOC(=O)C1(C)CCC(C(C(=O)O)C(=O)O)CC1=O (stereo not given) | > 100 µM (inactive) | > 100 µM (inactive) |  |  | > 100 µM (inactive) | > 100 µM (inactive) | > 100 µM (inactive) | > 100 µM (inactive) | > 100 µM (inactive) |
